A melting point compilation (Tetko et al.)

| melting point [°C] | Compound |
| --- | --- |
| 56 to 58 | BrCCC12CC3CC(CC(C3)C1)C2 |
| 181 to 183 | NNC(=S)Nc1cc(S(=O)(=O)N2CCOCC2)ccc1Cl |
| 193 to 195 | CCc1cccc2c(C(=O)O)c[nH]c12 |
| 274 to 276 | Nc1[nH]ncc1-c1nc2cc(Cl)ccc2s1 |
| 69 to 71 | CCOC(=O)c1cc(F)ccc1S(=O)(=O)Cl |
| 201 to 203 | Cc1nc(S)c(C#N)cc1C(=O)Nc1ccccc1 |
| 271 to 273 | O=C(O)c1ccc(N2CCOC2=O)cc1 |
| 110 to 112 | CC1CC(=O)N(Cc2ccccc2)c2ccccc2N1 (stereo unspecified) |
| 63 to 65 | Cc1ccc(S(=O)(=O)OCC2CCOCO2)cc1 (stereo unspecified) |
| 135 to 137 | CCOC(=O)Cc1c(C)nc(O)nc1C |
| 218 to 220 | CC(C)(C)c1n[nH]c(O)c1CCC#N |
| 159 to 161 | COc1ccc([N+](=O)[O-])cc1NC(=O)CCCl |
| 79 to 81 | CC(C)(C)OC(=O)NCc1cccc(O)c1 |
| 99 to 101 | Nc1ccnc(OCCO)c1 |
| 201 to 203 | Cc1ccc(NC(=O)Nc2ccccc2)cc1N |
| 109 to 111 | O=C(O)C(Sc1ccc(F)cc1F)c1ccccc1 (stereo unspecified) |
| 60 to 64 | O=C(O)CCCNC(=O)OCc1ccccc1 |
| 88 to 90 | O=S(=O)(Cl)c1ccc2nc(Cl)c(Cl)nc2c1 |
| 231 to 233 | CCOC=C1C(=O)N(c2ccccn2)C(=O)c2ccccc21 |
| 299 to 301 | Cc1[nH]c2ccccc2c(=O)c1C(C)C |
| 209 to 211 | Cc1nc(-c2c[nH]c(C(=O)O)c2)cs1 |
| 122 to 124 | CCNC(=O)c1cc(Cl)ccc1N |
| 173 to 177 | O=S(=O)(c1ccc2c(c1)CCN2)N1CCOCC1 |
| 56 to 58 | Cc1cc(Br)ccc1OCc1ccccc1 |
| 130 to 132 | CC(N)c1ccc2c(c1)NC(=O)CO2 (stereo unspecified) |

| melting point [°C] | Compound |
| --- | --- |
| 126 to 128 | O=C(NCc1cn[nH]c1)OCc1ccccc1 |
| 157 to 159 | O=C(O)C1CCCN(S(=O)(=O)c2ccc(Br)s2)C1 (stereo unspecified) |
| 138 to 140 | CC(=Cc1ccc(OCc2ccccc2)c(OCc2ccccc2)c1)C(=O)O |
| 259 to 261 | CC(C)(C)OC(=O)N1CCC(OCC(F)(F)F)(C(=O)O)CC1 |
| 160 to 162 | CC(C)(C)c1ccc(C2(C(=O)O)CCCCC2)cc1 |
| 176 to 178 | Cc1ccc(NC(=S)NN)cc1C |
| 106 to 108 | CC(=O)COc1ccc2cc(Br)ccc2c1 |
| 125 to 127 | O=C(O)c1cccc(C(F)F)c1 |
| 227 to 229 | O=C(O)c1nn(-c2ccc(F)cc2)cc1O |
| 156 to 158 | Clc1nnc(-c2ccccc2)c2ccccc12 |
| 132 to 134 | Cc1ccc(CNC(=O)n2ccnc2)cc1 |
| 72 to 74 | O=C1CC(c2ccccc2)C(=O)N1 (stereo unspecified) |
| 144 to 146 | N#Cc1cccc(-c2ncn[nH]2)c1 |
| 131 to 133 | CC(C)(C)c1n[nH]cc1C=O |
| 142 to 144 | Nc1ccc2c(c1)CCC(=O)N2Cc1ccc(Cl)cc1 |
| 189 to 191 | O=C1CCCc2c1[nH]c1ccc(Br)cc21 |
| 218 to 220 | O=c1[nH]c2ccsc2c(=O)o1 |
| 239 to 241 | COc1ccc(Nc2nc(C(=O)O)cs2)cc1 |
| 253 to 255 | O=C1CN=C(S)N1c1ccccc1 |
| 299 to 301 | Nc1cn[nH]c(=O)c1Cl |
| 98 to 100 | CC(=O)c1ccc(OCc2ccccc2C)cc1 |
| 64 to 66 | CC(C)(C)C(O)CN (stereo unspecified) |
| 299 to 301 | Cn1cc(C(=O)O)c(-c2ccc([N+](=O)[O-])cc2)n1 |
| 163 to 165 | O=C(O)c1cc(I)c(F)cc1F |
| 176 to 178 | CN(C(=O)c1ccc(N)cc1)C1CCCCC1 |

| melting point [°C] | Compound |
| --- | --- |
| 155 to 157 | O=C(O)C1(c2ccc(Br)cc2)CC1 |
| 111 to 113 | CC(C)Nc1ccc(S(C)(=O)=O)cc1 |
| 225 to 227 | CSc1nccn1-c1cccc(C(=O)O)c1 |
| 203 to 207 | CC(C)C(NC(N)=O)C(=O)O (stereo unspecified) |
| 117 to 119 | O=C1CCc2c(F)ccc(F)c21 |
| 70 to 72 | Cc1cc(C)cc(OCCN(C)C(=O)CCl)c1 |
| 279 to 281 | Cc1nc(-c2cccnc2)[nH]c(=O)c1CCC(=O)O |
| 169 to 171 | O=c1[nH]c(-c2ccccc2Br)cs1 |
| 206 to 208 | Nc1nc(Cl)c(Cl)c(N)c1Cl |
| 89 to 91 | N#CCC1(Sc2ccccc2N)CCCC1 |
| 176 to 178 | CSc1ccc([N+](=O)[O-])c(C(=O)O)c1 |
| 96 to 98 | CC(=O)c1nc2cc(Cl)ccc2n1C |
| 199 to 201 | Oc1ccccc1C1=NCCN1 |
| 127 to 129 | CNC1(CO)CCC(c2ccccc2)CC1 (stereo unspecified) |
| 44 to 46 | Cc1cccc(CNCc2cccc(C)n2)n1 |
| 89 to 93 | Nc1cc(S(=O)(=O)Nc2ccccc2Cl)ccc1Cl |
| 76 to 78 | Cc1ccc(C#N)cc1N |
| 105 to 107 | CC(C)n1cc2cc(N)ccc2n1 |
| 237 to 239 | COc1ccc(C2(c3ccc(OC)cc3)NC(=O)NC2=O)cc1 |
| 259 to 261 | O=c1[nH]c(CO)nc2scc(-c3ccccc3)c12 |
| 81 to 83 | O=[N+]([O-])c1ccc(S(=O)(=O)Cl)cn1 |
| 204 to 206 | Cc1ccc(F)c2c1C(=O)C(=O)N2 |
| 165 to 167 | CC(=O)NC(CC(=O)O)c1ccccc1 (stereo unspecified) |
| 207 to 209 | O=C(O)C=Cc1cc(Cl)ccc1OCc1ccccc1Br |
| 112 to 114 | Sc1ccc(Sc2ccc(S)cc2)cc1 |

| melting point [°C] | Compound |
| --- | --- |
| 104 to 115 | COc1cccc(-n2nc(C)c(CCC(=O)O)c2C)c1 |
| 87 to 89 | O=C(O)c1ccccc1N1CCCC1 |
| 176 to 178 | CN(c1ccccc1)c1ccc(C(=O)O)cn1 |
| 64 to 66 | Ic1ccc(OCCc2ccccc2)cc1 |
| 116 to 118 | CCOC(=O)C(=O)c1c(-c2ccc(C)cc2)nc2ccccn12 |
| 80 to 82 | Cc1ccc(NCCC(=O)O)cc1Cl |
| 240 to 242 | O=c1[nH]c2cc(F)ccc2c(=O)o1 |
| 91 to 93 | OCc1cn(-c2ccccc2)nc1-c1ccccc1 |
| 53 to 55 | CCOc1ccccc1-n1nnnc1S |
| 119 to 121 | COc1ccc(NC(=O)C=CC(=O)O)cc1OC |
| 140 to 142 | Clc1ccc(-c2n[nH]cc2Br)cc1 |
| 159 to 161 | Cc1ccc(CC(=O)O)cn1 |
| 119 to 121 | Oc1ncc(F)cc1I |
| 91 to 93 | CC(C(=O)O)c1ccc(S(C)(=O)=O)cc1 (stereo unspecified) |
| 190 to 192 | Cc1nn(C)cc1C(=O)O |
| 64 to 66 | CC(Cl)C(=O)Nc1ccccc1Oc1ccccc1 (stereo unspecified) |
| 151 to 153 | O=C(Nc1ccccc1)c1cccc(O)c1 |
| 62 to 64 | COc1ccc(Oc2c(F)cc(CCl)cc2F)cc1 |
| 102 to 104 | COC(=O)c1cccc(CS(=O)(=O)Cl)c1 |
| 126 to 128 | Cc1ccc(C(C)C)c(OCC(=O)O)c1 |
| 107 to 109 | CN(C)c1ccc(N)c2cnccc12 |
| 81 to 83 | CC(C)CC1(C)CC(=O)NC1=O (stereo unspecified) |
| 158 to 162 | O=C(O)c1c(-n2cccc2)sc2c1CCCC2 |

| Compound | melting point [°C] |
| --- | --- |
| COc1cc(C=O)cc2c1OCO2 | 130 to 134 |
| Cc1nn(Cc2ccccc2)c(C)c1C=O | 72 to 74 |
| Cc1cc(C(=O)O)nn1C1CCCCC1 | 145 to 147 |
